This is an account of results in patent US10259810B2, “N-sulfonylated pyrazolo[3,4-b]pyridin-6-carboxamides and method of use” (AbbVie S.à.r.l., priority 2015, dated 2019).

The term EC50 denotes the midpoint of the concentration-response curve.

In experiment [1] the target is T1, ΔF508-CFTR (Homo sapiens, UniProt P13569, DEL508-508).
T1 construct: host or cells: CFBE41o-, doxycycline-inducible
The experiment in a line: CFTR cell surface levels using HRP-tagged ΔF508-CFTR expressing CFBE cells, in the presence of a co-corrector. In kind it is cell-based. As to conditions: HRP-tagged ΔF508-CFTR CFBE cells, in the presence of 3 μM co-corrector; for EC50: read-out: EC50. In a few lines: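 Chemiluminescent read-out of surface HRP (15 min, dark) after PBS washes. Activity is normalized as 100×(sample−DMSO)/(3 μM co-corrector alone−DMSO).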

Experiment [2] deals with T1, ΔF508-CFTR. The experiment in a line: CFTR cell surface levels using HRP-tagged ΔF508-CFTR expressing CFBE cells, intrinsic corrector capacity. In kind it is cell-based. More on the design: % Activation: concentration or dose not given beside the values. As to conditions: HRP-tagged ΔF508-CFTR expressing CFBE41o- cells, compound alone (intrinsic corrector capacity), 20 hours at 33° C.; for EC50: read-out: EC50. In short, it runs like this:
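Read-out: chemiluminescent HRP activity of ECL4-HRP-tagged ΔF508-CFTR at the cell surface, 15 min substrate in dark. Normalized as 100×(sample−DMSO)/(positive control−DMSO).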

T1 sequence (P13569 with tags, fused parts or gaps DEL508-508): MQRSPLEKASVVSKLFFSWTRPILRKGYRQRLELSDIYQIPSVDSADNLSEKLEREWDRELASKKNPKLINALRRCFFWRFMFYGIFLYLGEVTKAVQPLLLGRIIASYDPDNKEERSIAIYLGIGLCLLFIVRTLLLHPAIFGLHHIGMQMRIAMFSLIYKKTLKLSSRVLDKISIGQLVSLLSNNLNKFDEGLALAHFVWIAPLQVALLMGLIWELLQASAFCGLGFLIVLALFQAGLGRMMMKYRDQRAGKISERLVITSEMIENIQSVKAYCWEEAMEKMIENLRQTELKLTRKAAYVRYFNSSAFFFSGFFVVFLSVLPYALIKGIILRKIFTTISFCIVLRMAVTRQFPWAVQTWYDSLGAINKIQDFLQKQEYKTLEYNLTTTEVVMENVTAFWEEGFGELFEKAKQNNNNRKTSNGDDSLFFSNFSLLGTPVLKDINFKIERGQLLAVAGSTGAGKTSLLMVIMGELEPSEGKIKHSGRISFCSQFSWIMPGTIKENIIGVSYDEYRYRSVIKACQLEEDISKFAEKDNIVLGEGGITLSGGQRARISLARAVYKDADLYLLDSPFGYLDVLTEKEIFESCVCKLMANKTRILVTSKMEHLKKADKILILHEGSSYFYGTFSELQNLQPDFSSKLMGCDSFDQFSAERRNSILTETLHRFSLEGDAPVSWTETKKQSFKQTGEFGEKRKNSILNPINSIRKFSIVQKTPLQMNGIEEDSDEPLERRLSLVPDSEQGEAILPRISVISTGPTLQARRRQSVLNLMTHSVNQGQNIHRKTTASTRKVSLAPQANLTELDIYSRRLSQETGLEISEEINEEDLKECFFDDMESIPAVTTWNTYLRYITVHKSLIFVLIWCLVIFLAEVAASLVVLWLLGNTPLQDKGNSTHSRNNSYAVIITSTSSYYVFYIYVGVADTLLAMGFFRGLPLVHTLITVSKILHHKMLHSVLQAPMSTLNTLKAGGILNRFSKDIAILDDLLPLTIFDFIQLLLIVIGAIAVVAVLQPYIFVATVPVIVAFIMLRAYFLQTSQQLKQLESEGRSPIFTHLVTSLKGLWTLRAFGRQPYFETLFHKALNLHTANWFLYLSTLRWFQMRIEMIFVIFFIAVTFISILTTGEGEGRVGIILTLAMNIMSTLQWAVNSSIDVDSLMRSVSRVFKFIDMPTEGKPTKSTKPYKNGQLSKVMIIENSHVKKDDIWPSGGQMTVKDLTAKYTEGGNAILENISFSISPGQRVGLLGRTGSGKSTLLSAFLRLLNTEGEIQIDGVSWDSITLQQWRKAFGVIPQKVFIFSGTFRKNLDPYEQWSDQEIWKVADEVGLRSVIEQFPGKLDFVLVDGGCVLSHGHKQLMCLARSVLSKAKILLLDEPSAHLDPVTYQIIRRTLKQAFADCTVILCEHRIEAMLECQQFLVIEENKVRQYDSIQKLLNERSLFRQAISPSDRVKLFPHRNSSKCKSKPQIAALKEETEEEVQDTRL

Consider `CS(=O)(=O)NC(=O)c1cc(C2CCN(CC3CCOCC3)CC2)c2c(C3CCC3)nn(-c3ccc(F)cc3)c2n1` [Compound 600, 3-cyclobutyl-1-(4-fluorophenyl)-N-(methanesulfonyl)-4-{1-[(oxan-4-yl)methyl]piperidin-4-yl}-1H-pyrazolo[3,4-b]pyridine-6-carboxamide], for which the “% Activation” value at ΔF508-CFTR [1] is given as 326.1%; at ΔF508-CFTR [2] it was 126.5%. In addition, the results for the EC50 at ΔF508-CFTR [1] and at ΔF508-CFTR [2] were 1620 nM and 1210 nM, respectively.
With `CN(C)S(=O)(=O)NC(=O)c1cc(C2CCN(CC3CCOCC3)CC2)c2c(C3CCC3)nn(-c3ccc(F)cc3)c2n1` [Compound 601, 3-cyclobutyl-N-(dimethylsulfamoyl)-1-(4-fluorophenyl)-4-{1-[(oxan-4-yl)methyl]piperidin-4-yl}-1H-pyrazolo[3,4-b]pyridine-6-carboxamide], at ΔF508-CFTR [1], the “% Activation” value came to 273.9% and the EC50 stood at 625 nM. In addition, at ΔF508-CFTR [2], the “% Activation” value is given as 112% and the EC50 worked out at 2180 nM.
For `COC1CC(CN2CCC(c3cc(C(=O)NS(C)(=O)=O)nc4c3c(C3CCC3)nn4-c3ccc(F)cc3)CC2)C(OC)O1` (stereo not shown) [Compound 602, 3-cyclobutyl-4-{1-[(2,5-dimethoxyoxolan-3-yl)methyl]piperidin-4-yl}-1-(4-fluorophenyl)-N-(methanesulfonyl)-1H-pyrazolo[3,4-b]pyridine-6-carboxamide], the figures for the “% Activation” value on ΔF508-CFTR [1] and at ΔF508-CFTR [2] were 359.1% and 133.6%, respectively. For the same molecule, the EC50 at ΔF508-CFTR [1] was determined as 581 nM; on ΔF508-CFTR [2] it was 1180 nM.
For `CS(=O)(=O)NC(=O)c1cc(C2CCN(CCC(F)(F)F)CC2)c2c(C3CCC3)nn(-c3ccc(F)cc3)c2n1` [Compound 603, 3-cyclobutyl-1-(4-fluorophenyl)-N-(methanesulfonyl)-4-[1-(3,3,3-trifluoropropyl)piperidin-4-yl]-1H-pyrazolo[3,4-b]pyridine-6-carboxamide], at ΔF508-CFTR [1], the “% Activation” value is given as 344.65% and the EC50 turned out to be 156 nM. On ΔF508-CFTR [2], the “% Activation” value is listed as 136.2% and the EC50 was found to be 283 nM.
In the same order, the values of `CN(C)S(=O)(=O)NC(=O)c1cc(C2CCN(CCC(F)(F)F)CC2)c2c(C3CCC3)nn(-c3ccc(F)cc3)c2n1` [Compound 604, 3-cyclobutyl-N-(dimethylsulfamoyl)-1-(4-fluorophenyl)-4-[1-(3,3,3-trifluoropropyl)piperidin-4-yl]-1H-pyrazolo[3,4-b]pyridine-6-carboxamide] are 268.3%, 300 nM, 86.51% and 490 nM.
On to `COS(=O)(=O)NC(=O)c1cc(N2CCC(N3CCOCC3)CC2)c2c(C3CCC3)nn(-c3ccc(F)cc3)c2n1` [Compound 606, methyl {3-cyclobutyl-1-(4-fluorophenyl)-4-[4-(morpholin-4-yl)piperidin-1-yl]-1H-pyrazolo[3,4-b]pyridine-6-carbonyl}sulfamate], for which, on ΔF508-CFTR [1], the “% Activation” value is 513.7% and the EC50 stood at 469 nM. On ΔF508-CFTR [2], the “% Activation” value is given as 283.8% and the EC50 turned out to be 973 nM.
Taken in the same sequence, the figures for `COCCN1CCN(C2CCN(c3cc(C(=O)NS(=O)(=O)N(C)C)nc4c3c(C3CCC3)nn4-c3ccc(F)cc3)CC2)CC1` [Compound 607, 3-cyclobutyl-N-(dimethylsulfamoyl)-1-(4-fluorophenyl)-4-{4-[4-(2-methoxyethyl)piperazin-1-yl]piperidin-1-yl}-1H-pyrazolo[3,4-b]pyridine-6-carboxamide] were 484.3%, 667 nM, 272.6% and 342 nM.
As to `COCCN1CCN(S(=O)(=O)NC(=O)c2cc(N3CCC(COC)CC3)c3c(C4CCC4)nn(-c4ccc(F)cc4)c3n2)CC1` [Compound 610, 3-cyclobutyl-1-(4-fluorophenyl)-N-[4-(2-methoxyethyl)piperazine-1-sulfonyl]-4-[4-(methoxymethyl)piperidin-1-yl]-1H-pyrazolo[3,4-b]pyridine-6-carboxamide], on ΔF508-CFTR [1], the “% Activation” value is listed as 375.5% and the EC50 was 119 nM. For the same molecule, at ΔF508-CFTR [2], the “% Activation” value was 182.13% and the EC50 came out at 186 nM.
As for `CN(C)S(=O)(=O)NC(=O)c1cc(C2CCN(C3CCOCC3)CC2)c2c(C3CCC3)nn(-c3ccc(F)cc3)c2n1` [Compound 612, 3-cyclobutyl-N-(dimethylsulfamoyl)-1-(4-fluorophenyl)-4-[1-(oxan-4-yl)piperidin-4-yl]-1H-pyrazolo[3,4-b]pyridine-6-carboxamide], at ΔF508-CFTR [1], the “% Activation” value worked out at 320.8% and the concentration for a half-maximal effect (EC50) stood at 3330 nM. Besides, at ΔF508-CFTR [2], the “% Activation” value was 108.7% and the 50% effective concentration (EC50) came to 876 nM.
With `CN(C)S(=O)(=O)NC(=O)c1cc(C2CCN(CC3CC3)CC2)c2c(C3CCC3)nn(-c3ccc(F)cc3)c2n1` [Compound 613, 3-cyclobutyl-4-[1-(cyclopropylmethyl)piperidin-4-yl]-N-(dimethylsulfamoyl)-1-(4-fluorophenyl)-1H-pyrazolo[3,4-b]pyridine-6-carboxamide], at ΔF508-CFTR [1], the “% Activation” value is on record as 152.9% and the EC50 was at least 10000 nM. The “% Activation” value at ΔF508-CFTR [2] worked out at 30.09%.
Turning to `CN(C)S(=O)(=O)NC(=O)c1cc(N2CCC(N3CCN(C4COC4)CC3)CC2)c2c(C3CCC3)nn(-c3ccc(F)cc3)c2n1` [Compound 615, 3-cyclobutyl-N-(dimethylsulfamoyl)-1-(4-fluorophenyl)-4-{4-[4-(oxetan-3-yl)piperazin-1-yl]piperidin-1-yl}-1H-pyrazolo[3,4-b]pyridine-6-carboxamide], at ΔF508-CFTR [1], the “% Activation” value turned out to be 450.85% and the EC50 stood at 130 nM. Further, at ΔF508-CFTR [2], the “% Activation” value stood at 255.3% and the EC50 is 482 nM.
As to `CN(C)S(=O)(=O)NC(=O)c1cc(OCC2CCN(C3CC3)CC2)c2c(C3CCC3)nn(-c3ccc(F)cc3)c2n1` [Compound 616, 3-cyclobutyl-4-[(1-cyclopropylpiperidin-4-yl)methoxy]-N-(dimethylsulfamoyl)-1-(4-fluorophenyl)-1H-pyrazolo[3,4-b]pyridine-6-carboxamide], at ΔF508-CFTR [1], the “% Activation” value was 341.15% and the concentration giving a half-maximal response (EC50) was 294 nM. Further, at ΔF508-CFTR [2], the “% Activation” value is given as 144.05% and the EC50 was found to be 348 nM.
In the case of `CN(C)S(=O)(=O)NC(=O)c1cc(OCC2CCN(C3CCC3)CC2)c2c(C3CCC3)nn(-c3ccc(F)cc3)c2n1` [Compound 617, 3-cyclobutyl-4-[(1-cyclobutylpiperidin-4-yl)methoxy]-N-(dimethylsulfamoyl)-1-(4-fluorophenyl)-1H-pyrazolo[3,4-b]pyridine-6-carboxamide], the “% Activation” value at ΔF508-CFTR [1] came to 324.25%; on ΔF508-CFTR [2] it was 137.1%. Also, the EC50 was 978 nM on ΔF508-CFTR [1] and 871 nM on ΔF508-CFTR [2].
Taken in the same sequence, the figures for `CN(C)S(=O)(=O)NC(=O)c1cc(OCC2CCN(C3CCCCC3)CC2)c2c(C3CCC3)nn(-c3ccc(F)cc3)c2n1` [Compound 618, 3-cyclobutyl-4-[(1-cyclohexylpiperidin-4-yl)methoxy]-N-(dimethylsulfamoyl)-1-(4-fluorophenyl)-1H-pyrazolo[3,4-b]pyridine-6-carboxamide] were 295.9%, 112.8%, 702 nM and 421 nM.
